Laboratory results from patent US4847247A, “Penicillin derivatives as anti-inflammatory and antidegenerative agents” (Merck & Co., Inc., priority 1986, dated 1989).

biological target: T1, Human Polymorphonuclear Leukocyte Elastase (Homo sapiens, UniProt P08246); assay: Inhibition of human polymorphonuclear leukocyte (granulocyte) elastase via hydrolysis of Boc-AAPAN; type: biochemical; conditions: not given
T1 construct: Crude extract of human polymorphonuclear leukocytes (PMN) containing elastase activity; endogenous in cells; host or cells: human polymorphonuclear leukocytes (crude extract)
T1 sequence (P08246 30-247 limits assumed): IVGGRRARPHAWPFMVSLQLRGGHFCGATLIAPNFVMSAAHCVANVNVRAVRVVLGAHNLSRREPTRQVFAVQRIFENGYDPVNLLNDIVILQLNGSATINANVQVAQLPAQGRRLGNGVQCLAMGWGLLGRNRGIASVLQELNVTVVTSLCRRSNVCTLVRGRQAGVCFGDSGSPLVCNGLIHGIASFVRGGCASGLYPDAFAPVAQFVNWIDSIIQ
Protocol: Enzyme assay for the Inhibition of Human Polymorphonuclear Leukocyte Elastase Via Hydrolysis of N-t-Boc-alanyl-alanyl-prolylalanine-p-nitroanilide
0.05M TES (N-tris[hydroxymethyl]methyl-2-amino-ethanesulfonic acid) buffer, pH 7.5.
0.2 mM N-t-Boc-alanyl-alanyl-prolyl-alanine-p-nitroanilide (Boc-AAPAN).
To prepare substrate, the solid (m.w. 550) was first dissolved in 10.0 ml DMSO. Buffer at pH 7.5 was then added to a final volume of 100 ml.
Crude extract of human polymorphonuclear leukocytes (PMN) containing elastase activity.
Inhibitors (cephalosporin sulfoxide esters) to be tested dissolved in DMSO just before use.
To 1.0 ml of 0.2 mM Boc-AAPAN in a cuvette, 0.01-0.1 ml of DMSO with or without inhibitor was added. After mixing, a measurement was taken at 410 mμ to detect any spontaneous hydrolysis due to of test compound. 0.05 Milliliters of PMN extract was then added and the αOD/minute at 410 mμ was measured and recorded. Beckman model 35 spectrophotometer was used.
The elastase activity in the crude PMN extract may vary from one preparation to another. A control of each new batch is run, and the volume added in the assay procedure is adjusted according to activity.

Compound	IC50 [µM]
CC1(C)[C@H](C(=O)OCc2ccccc2)N2C(=O)[C@@H](NC(=O)C(F)(F)F)[C@H]2S1(=O)=O [6β-CF3 CONH / 2 / OBZ]	4.6
CC(OC(=O)NCc1ccccc1)[C@H]1C(=O)N2[C@@H](C(=O)OCc3ccccc3)C(C)(C)S(=O)(=O)[C@H]12 (stereo partly drawn) [drawing 28 / 2 / OBZ]	1.2
CC1(C)[C@H](C(=O)OCc2ccccc2)N2C(=O)[C@H](NC(=O)C(F)(F)F)[C@H]2S1(=O)=O [6α-CF3 CONH / 2 / OBZ, Benzyl 6α-trifluoroacetamidopenicillanate-1,1-dioxide]	0.345
CC1(C)[C@H](C(=O)OCc2ccccc2)N2C(=O)[C@H](COC(=O)NCc3ccccc3)[C@H]2S1(=O)=O [6α-CH2 O(CO)NH(BZ) / 2 / OBZ]	8.22
CN(C(=O)C(F)(F)F)[C@H]1C(=O)N2[C@@H](C(=O)OCc3ccccc3)C(C)(C)S(=O)(=O)[C@H]12 [6α-CF3 CON(CH3) / 2 / OBZ, Benzyl 6α-(N-methyltrifluoroacetamido)penicillanate-1,1-dioxide]	0.446
Cc1ccc(S(=O)(=O)OC2C(=O)N3[C@@H](C(=O)OCc4ccccc4)C(C)(C)S(=O)(=O)[C@H]23)cc1 (stereo partly drawn) [p-CH3 C6 H4 SO2 O(TsO) / 2 / OBZ]	0.101
CC1(C)[C@H](C(=O)OCc2ccccc2)N2C(=O)[C@@H](COC(=O)NCc3ccccc3)[C@H]2S1(=O)=O [6β-CH2 O(CO)NH(BZ) / 2 / OBZ]	1.44

same assay, conditions: crude human PMN extract, 0.2 mM Boc-AAPAN, pH 7.5, 410 mμ, 2 minutes after zero time; read-out: IC50 (dosage for 50% inhibition of the enzyme activity) (converted)

Compound	IC50 [µM]
Cc1ccc(S(=O)(=O)C[C@H]2C(=O)N3[C@@H](C(=O)OCc4ccccc4)C(C)(C)S(=O)(=O)[C@H]23)cc1 [6α-(TS)CH2 / 2 / OBZ]	0.61
CC[C@@]1(NC(=O)C(F)(F)F)C(=O)N2[C@@H](C(=O)OCc3ccccc3)C(C)(C)S(=O)(=O)[C@@H]21 [β-CF3 CONH / α-C2 H5 / 2 / OBZ, benzyl 6α-ethyl-6β-trifluoroacetamidopenicillanate-1,1-dioxide]	6.49
CC1(C)[C@H](C(=O)OCc2ccc(C(=O)O)cc2)N2C(=O)[C@@H](NC(=O)C(F)(F)F)[C@H]2S1(=O)=O [6β-CF3 (CO)NH / 2 / OBZ(p-COOH)]	2.09
CO[C@H]1C(=O)N2[C@@H](C(=O)OCC(F)(F)F)C(C)(C)S(=O)(=O)[C@H]12 [6α-OCH3 / 2 / OCH2 CF3]	11.6
CC(OC(=O)OCc1ccc([N+](=O)[O-])cc1)[C@H]1C(=O)N2[C@@H](C(=O)OCc3ccccc3)C(C)(C)S(=O)(=O)[C@H]12 (stereo partly drawn) [drawing 27 / 2 / OBZ]	0.366
CC1(C)S[C@@H]2[C@@H](COC(=O)NCc3ccccc3)C(=O)N2[C@H]1C(=O)OCc1ccccc1 [6α-CH2 O(CO)NH(BZ) / 0 / OBZ]	11
COC(=O)[C@@H]1N2C(=O)[C@H](OC)[C@H]2S(=O)(=O)C1(C)C [6α-OCH3 / 2 / OCH3]	72.1
CO[C@H]1C(=O)N2[C@@H](C(=O)OCc3ccc(C(=O)O)cc3)C(C)(C)S(=O)(=O)[C@H]12 [6α-OCH3 / 2 / OBZ(p-COOH)]	5.03
CC1(C)[C@H](C(=O)c2ccccc2)N2C(=O)[C@@H](NC(=O)C(F)(F)F)[C@H]2S1(=O)=O [6β-CF3 CONH / 2 / Ph]	2.47
Cc1ccc(S(=O)(=O)OC2C(=O)N3[C@@H]2[S+]([O-])C(C)(C)[C@@H]3C(=O)OCc2ccccc2)cc1 (stereo partly drawn) [p-CH3 C6 H4 SO2 O(TsO) / 1 / OBZ]	4.19
CCO[C@H]1C(=O)N2[C@@H](C(=O)OCc3ccccc3)C(C)(C)S(=O)(=O)[C@H]12 [6α-OC2 H5 / 2 / OBZ, Benzyl 6α-ethoxypenicillanate-1,1-dioxide]	5.44
CO[C@H]1C(=O)N2[C@@H]1[S+]([O-])C(C)(COC(C)=O)[C@@H]2C(=O)OCc1ccccc1 (stereo partly drawn) [α-CH3 O / 1 / OBZ]	10.1
C[C@@H](OC(=O)OCc1ccccc1)[C@H]1C(=O)N2[C@@H](C(=O)OCc3ccccc3)C(C)(C)S(=O)(=O)[C@H]12 [drawing 29 / 2 / OBZ]	0.0997
CC(C)(C)OC(=O)c1ccc(COC(=O)[C@@H]2N3C(=O)[C@H](NC(=O)C(F)(F)F)[C@H]3S(=O)(=O)C2(C)C)cc1 [6α-CF3 (CO)NH / 2 / OBZ(p-COOtBu)]	0.187
Cc1ccc(S(=O)(=O)N[C@H]2C(=O)N3[C@@H]2SC(C)(C)[C@@H]3C(=O)OCc2ccccc2)cc1 [6α-(TS)NH / 0 / OBZ]	0.217
CO[C@H]1C(=O)N2[C@@H](C(=O)Cc3ccccc3)C(C)(C)S(=O)(=O)[C@H]12 [6α-OCH3 / 2 / BZ]	5.93
Cc1ccc(S(=O)(=O)C[C@H]2C(=O)N3[C@@H]2[S+]([O-])C(C)(C)[C@@H]3C(=O)OCc2ccccc2)cc1 (stereo partly drawn) [6α-(TS)CH2 / 1 / OBZ]	8.41
CCC1(N(C)C(=O)C(F)(F)F)C(=O)N2C1[S+]([O-])C(C)(C)C2C(=O)OCc1ccccc1 (stereo not drawn) [β-CF3 CON(CH3) / α-C2 H5 / 1 / OBZ]	43.4
CO[C@H]1C(=O)N2[C@@H](C(=O)OCC(=O)OC(C)(C)C)C(C)(C)S(=O)(=O)[C@H]12 [6α-OCH3 / 2 / OCH2 COOtBu]	7.95

Compound	IC50 [µM]
CN(Cc1ccc(C(=O)OC(C)(C)C)cc1)C(=O)[C@@H]1N2C(=O)[C@H](NC(=O)C(F)(F)F)[C@H]2S(=O)(=O)C1(C)C [6α-CF3 (CO)NH / 2 / N(CH3)BZ(p-COOtBu)]	1.28
CN(CC(=O)OC(C)(C)C)C(=O)[C@@H]1N2C(=O)[C@H](NC(=O)C(F)(F)F)[C@H]2S(=O)(=O)C1(C)C [6α-CF3 (CO)NH / 2 / N(CH3)(CH2 COOtBu)]	1.48
CC(=O)O[C@H]1C(=O)N2[C@@H]1SC(C)(C)[C@@H]2C(=O)OCc1ccccc1 [CH3 COO / 0 / OBZ]	28.6
CC1(C)[C@H](C(=O)OCc2ccccc2)N2C(=O)[C@H](OCc3ccccc3)[C@H]2S1(=O)=O [6α-OBZ / 2 / OBZ]	9.31
CC(OC(=O)N(Cc1ccccc1)C(=O)NCc1ccccc1)[C@H]1C(=O)N2[C@@H](C(=O)OCc3ccccc3)C(C)(C)S(=O)(=O)[C@H]12 (stereo partly drawn) [drawing 30 / 2 / OBZ]	0.0789
CN(CC(=O)O)C(=O)[C@@H]1N2C(=O)[C@H](NC(=O)C(F)(F)F)[C@H]2S(=O)(=O)C1(C)C [6α-CF3 (CO)NH / 2 / N(CH3)(CH2 COOH)]	12
CC1(C)[C@H](C(=O)OCc2ccccc2)N2C(=O)C(OC(=O)COc3ccccc3)[C@H]2[S+]1[O-] (stereo partly drawn) [C6 H5 OCH2 COO / 1 / OBZ]	10.9
CC(O)[C@H]1C(=O)N2[C@@H]1SC(C)(C)[C@@H]2C(=O)OCc1ccccc1 (stereo partly drawn) [6α-CH3 CH(OH) / 0 / OBZ]	59.6
CO[C@H]1C(=O)N2[C@@H](C(=O)OCc3ccccc3)C(C)(COC(C)=O)S(=O)(=O)[C@H]12 (stereo partly drawn) [α-CH3 O / 2 / OBZ]	9.72 to 14.6
CC(C)(C)OC(=O)c1ccc(COC(=O)[C@@H]2N3C(=O)[C@@H](NC(=O)C(F)(F)F)[C@H]3S(=O)(=O)C2(C)C)cc1 [6β-CF3 (CO)NH / 2 / OBZ(p-COOtBu)]	0.935
CC[C@@]1(NC(=O)C(F)(F)F)C(=O)N2[C@@H](C(=O)OCc3ccccc3)C(C)(C)[S+]([O-])[C@@H]21 (stereo partly drawn) [β-CF3 CONH / α-C2 H5 / 1 / OBZ]	11.2
CN(Cc1ccccc1)C(=O)[C@@H]1N2C(=O)[C@@H](NC(=O)C(F)(F)F)[C@H]2S(=O)(=O)C1(C)C [6β-CF3 (CO)NH / 2 / N(CH3)(BZ), 2,2-Dimethyl-6-(trifluoro-acetamido)-3-(N-methyl-N-benzylcarbamoyl)penam-1,1-dioxide]	4.47
CN(C(=O)C(F)(F)F)[C@H]1C(=O)N2[C@@H]1SC(C)(C)[C@@H]2C(=O)OCc1ccccc1 [6α-CF3 CON(CH3) / 0 / OBZ, benzyl 6α-(N-methyltrifluoroacetamido)penicillinate]	7.2
CN(Cc1ccccc1)C(=O)[C@@H]1N2C(=O)[C@@H](NC(=O)C(F)(F)F)[C@H]2SC1(C)C [6β-CF3 (CO)NH / 0 / N(CH3)(BZ), 2,2-diimethyl-6-(trifluoroacetamido)-3-(N-methyl-N-benzylcarbamoyl)penam]	1.44
CC1(C)S[C@@H]2C(OC(=O)COc3ccccc3)C(=O)N2[C@H]1C(=O)OCc1ccccc1 (stereo partly drawn) [C6 H5 OCH2 COO / 0 / OBZ]	45.3
CO[C@H]1C(=O)N2[C@@H]1SC(C)(COC(C)=O)[C@@H]2C(=O)OCc1ccccc1 (stereo partly drawn) [α-CH3 O / 0 / OBZ]	13.2
CO[C@@]1(NC(=O)C(F)(F)F)C(=O)N2[C@@H](C(=O)OCc3ccccc3)C(C)(C)S(=O)(=O)[C@@H]21 [β-CF3 CONH / α-CH3 O / 2 / OBZ]	19.4
CC1(C)[C@H](C(=O)OCC(F)(F)F)N2C(=O)[C@H](NC(=O)C(F)(F)F)[C@H]2S1(=O)=O [6α-CF3 CONH / 2 / OCH2 CF3]	0.235

same assay, conditions: read-out: IC50 (dosage for 50% inhibition of the enzyme activity); crude human PMN extract, 0.2 mM Boc-AAPAN, pH 7.5, 410 mμ, 2 minutes after zero time

Compound	IC50 [µM]
CC1(C)[C@H](C(=O)OCc2ccccc2)N2C(=O)C(OC(=O)Cc3ccccc3)[C@H]2S1(=O)=O (stereo partly drawn) [(BZ)COO / 2 / OBZ]	8.74
